Data taken from US11364282B2, “Compositions, uses and methods for treatment of infertility and subfertility” (LO.LI. PHARMA S.R.L., priority 2017, dated 2022).

How the values were obtained:
[1] = system: women affected by idiopathic infertility; assay: Clinical evaluation on women affected by idiopathic infertility: biochemical pregnancy (beta hCG assay); assay type: in vivo, human; conditions: first phase: 40 women; 2 g myoinositol + 0.2 mg folic acid (Inofolic), two sachets per day, 3 months
Excerpt: The present study aims to develop an efficacious therapy in women suffering from idiopathic infertility based on the improved absorption of inositol, e.g. myoinositol, when administered in combination with alpha lactalbumin. Specifically, while treatment of idiopathic infertility with myoinositol alone correlates to an improvement in the disease in a significant number of women, there remain women who still fail to respond to treatment with myoinositol alone. The present inventors thus sought to determine whether the higher level of myoinositol absorption observed when administering myoinositol together with alpha lactalbumin might allow successful treatment of idiopathic infertility patients who had previously not responded to treatment with myoinositol alone. If so, then the treatment of idiopathic infertility with inositol in combination with alpha lactalbumin, e.g. myoinositol in combination with alpha lactalbumin, would represent a significant therapeutic advance, allowing treatment of idiopathic infertility in previously recalcitrant cases, thereby substantially extending the therapeutic benefit of inositol, e.g. myoinositol, in treating idiopathic infertility. The present study included 40 women affected by idiopathic infertility. Inclusion criteria were: women affected by idiopathic infertility as defined below, aged 30-40 years, who were not receiving any therapy with drugs which potentially influence ovulation. Patients were given a thorough evaluation and were tested for a number of diseases, as described in the following. Testing positive for any of these diseases tested sufficed to exclude a patient as being “idiopathically infertile”. Specifically, patients were excluded from this trial in the event they were diagnosed positive for any of: hyperprolactinemia, hypothyroidism, Cushing's syndrome, adrenal hyperplasia, obesity, polycystic ovary syndrome (PCOS) or anovulation. The person skilled in the art can routinely diagnose each of the above mentioned conditions. For example, hyperprolactinemia can be diagnosed when serum prolactin levels are found to be over 20 μg/L, as e.g. described in Serri et al., CMAJ, 2003, 169(6): 575-581. Hypothyroidism can be diagnosed when the serum TSH level is found to be over 4.5 mIU/L (Garber et al., CLINICAL PRACTICE GUIDELINES FOR HYPOTHYROIDISM IN ADULTS: COSPONSORED BY THE AMERICAN ASSOCIATION OF CLINICAL ENDOCRINOLOGISTS AND THE AMERICAN THYROID ASSOCIATION; Endocrine Practice vol. 18 No. 6, 2012). Cushing's syndrome can be diagnosed according to Nieman et al., J. Clin. Endocrinol. […] The primary readout was the achievement of biochemical pregnancy as assessed using an assay (HCG Combo Card, Shanghai Chemtron Biotech Co., Ltd., catalog.no. 6011C31-4) for beta human chorionic gonadotropin (beta hCG). […]

[2] = clinical; conditions: female, human, in vivo
Protocol: (§1) Specifically, myoinositol plasma levels were tested in these non-responding patients; a mean value of 17±3.5 μmol/l myoinositol was observed. Successively, a treatment with 2 g myoinositol, 0.2 mg folic acid and 50 mg alpha lactalbumin was performed in doses of two powder sachets per day before meals during the next three months. Of the 7 myoinositol resistant patients after combined treatment with myoinositol and alpha lactalbumin, 5 of the original non-responders (i.e. 71% of the original non-responders) ovulated. […]

[3] = Pharmacokinetic evaluation in healthy subjects: myoinositol plus alpha lactalbumin (plasma myoinositol by GCMS); assay type: in vivo; conditions: both sexes, human, single oral dose in powder, 6 g myoinositol alone or plus 150 mg alpha lactalbumin, 15 healthy volunteers, mean
Excerpt: The present example describes a pharmacokinetic study combining the oral administration of myoinositol and alpha lactalbumin in healthy subjects. The study aims to determine whether the combination of myoinositol and alpha lactalbumin is able to increase the plasma level of myoinositol above that observed after administering myoinositol alone. The study involved 15 healthy volunteers, 6 men and 9 women. […] Subjects received orally 6 g of myoinositol in powder form and then, after a washout period of 7 days, 6 g of myoinositol and 150 mg alpha lactalbumin, also in powder form.

[4] = system: anovulatory PCOS women; conditions: 4 g/day myoinositol; cited from earlier work
[5] = system: anovulatory PCOS patients; assay: Clinical evaluation on PCOS women: ovulation assessed by ultrasound examination; assay type: in vivo, human; conditions: two sachets per day
Excerpt: The present study aims to develop an efficacious therapy in women suffering from PCOS based on the improved absorption of inositol, e.g. myoinositol, when administered in combination with alpha lactalbumin. Specifically, while treatment of PCOS with myoinositol alone correlates to an improvement in the disease in a significant number of women, there remain women who still fail to respond to treatment with myoinositol alone. The present inventors thus sought to determine whether the higher level of myoinositol absorption observed when administering myoinositol together with alpha lactalbumin might allow successful treatment of PCOS patients who had previously not responded to treatment with myoinositol alone. If so, then the treatment of PCOS with inositol in combination with alpha lactalbumin, e.g. myoinositol in combination with alpha lactalbumin, would represent a significant therapeutic advance, allowing treatment of PCOS in previously recalcitrant cases, thereby substantially extending the therapeutic benefit of inositol, e.g. myoinositol, in treating PCOS.
The present study included 20 anovulatory PCOS patients.
Inclusion criteria were: age 20-35 years; PCOS according to Rotterdam ESHRE-ASRM consensus workshop group; anovulation and infertility >1 year. Indeed, according to Rotterdam criteria, PCOS was diagnosed performed if 2 out of the 3 following factors were fulfilled: a) oligo- or anovulation, b) clinical and/or biochemical signs of hyperandrogenism, and c) polycystic ovaries.
Patients were excluded in the event of other conditions causing ovulatory dysfunction, such as hyperprolactinemia or hypothyroidism, or androgen excess, such as adrenal hyperplasia or Cushing's syndrome, and also in the case of intake of other drugs that can potentially influence ovulation.
All the patients were given myoinositol (Inofolic®, Lo.Li. Pharma, Rome, Italy), containing 2 g myoinositol and 0.2 mg folic acid in dose of two sachets per day before meals, in order to induce ovulation.
Ovulation was assessed using ultrasound examination on days 12, 14 and 20 of the cycle. Treatment was performed for three months.
These 7 non-responders then became the subject of a second phase of the study, in which they received treatment with myoinositol in combination with alpha lactalbumin.
as §1

[6] = first phase: 20 anovulatory PCOS patients, 2 g myoinositol + 0.2 mg folic acid (Inofolic), three months

- concentration at 3 months [2]: 17 ± 3.5 µM
- myoinositol plasma level in patients who responded positively [2]: 38 µmol/L
- MYOINOSITOL PLASMA LEVELS T3 mean (±SD) ([2]; 3 months): 17 (3.5) μmol/l
- Cmax [3]: 98 µM
- Tmax [3]: 3 h
SMILES: O[C@H]1[C@H](O)[C@@H](O)[C@H](O)[C@@H](O)[C@H]1O [myoinositol]
- Achieving biochemical pregnancy % [1]: 52.5%
- Achieving biochemical pregnancy (number) [1]: 21
- Not achieving biochemical pregnancy % [1]: 47.5%
- Not achieving biochemical pregnancy (number) [1]: 19
- non-responders (patients who did not ovulate after treatment) [4]: 38.3%
- OVULATION T3 (number of patients) ([5]; 7 PCOS patients non-responsive to myoinositol, after 3 months of the treatment, combination: 2 g myoinositol, 0.2 mg folic acid, 50 mg alpha lactalbumin): 0
- women resistant, did not ovulate (%) [5, 6]: 35%
- women resistant, did not ovulate (number of 20) [5, 6]: 7
- women who ovulated (%) [5, 6]: 65%
- women who ovulated (number of 20) [5, 6]: 13
